The values that follow come from patent publication US20220169632A1, “METHODS AND MATERIALS FOR INCREASING OR MAINTAINING NICOTINAMIDE MONONUCLEOTIDE ADENYLYL TRANSFERASE-2 (NMNAT2) POLYPEPTIDE LEVELS” (University of Pittsburgh - Of the Commonwealth System of …, priority 2019, published 2022).

The first assay concerns NMNAT2. In words: NMNAT2-Hibit nano-luciferase activity in transfected U87MG cells, 25 μM, 24 hours. In kind it is cell-based. As to conditions: NMNAT2-Hibit luc plasmid, 24 hours (Table B). As to the method: Selected compounds were tested in vitro. Briefly, U87MG cells were transfected with NMNAT2-Hibit luc plasmid. Cells were treated with a test compound at 25 μM for 24 hours. Cells were then collected and assayed for nano-luciferase activity.
Turning to `CN(C(=O)NCc1noc2ccccc12)c1ccccc1Cl` [Compound 181017], the “B: compound efficacy (IC50) for NMNAT2 activation; increase in NMNAT2 luciferase activity” value was “+ (“+” <20% increase in NMNAT2 luciferase activity.)”. The same measure, in the same setting: the result for `CCc1ccc(CNC(=O)NCc2noc3ccc(C)cc23)cc1` [Compound 181068] reads “++ (“++” >20% and <100% increase in NMNAT2 luciferase activity.)”; that for `Cc1ccc(CCNC(=O)NCc2noc3ccc(C)cc23)cc1` [Compound 181083], “++ (“++” >20% and <100% increase in NMNAT2 luciferase activity.)”; that for `CCc1cccc(NC(=O)NCc2noc3ccc(C)cc23)c1` [Compound 181067], “+ (“+” <20% increase in NMNAT2 luciferase activity.)”. On the same count and under the same terms, the result for `Cc1ccc2onc(CNC(=O)Nc3ccc(C)c(F)c3)c2c1` [Compound 181039] reads “+ (“+” <20% increase in NMNAT2 luciferase activity.)”. For the compound `Cc1cc(Br)ccc1NC(=O)NCc1noc2ccccc12` [Compound 181007], the “B: compound efficacy (IC50) for NMNAT2 activation; increase in NMNAT2 luciferase activity” value is recorded as “+ (“+” <20% increase in NMNAT2 luciferase activity.)”. For `Cc1ccc2onc(CNC(=O)NCCc3c[nH]c4ccccc34)c2c1` [Compound 181086], the “B: compound efficacy (IC50) for NMNAT2 activation; increase in NMNAT2 luciferase activity” value is “++ (“++” >20% and <100% increase in NMNAT2 luciferase activity.)”. Turning to `Cc1ccccc1N(C)C(=O)NCc1noc2ccccc12` [Compound 181012], the “B: compound efficacy (IC50) for NMNAT2 activation; increase in NMNAT2 luciferase activity” value was “+ (“+” <20% increase in NMNAT2 luciferase activity.)”. Still for that read-out and setting: the result for `CCCN(C(=O)NCc1noc2ccc(C)cc12)c1ccc(Cl)c(Cl)c1` [Compound 181061] reads “+ (“+” <20% increase in NMNAT2 luciferase activity.)”. On to `Cc1ccc2onc(CNC(=O)Nc3ccccc3F)c2c1` [Compound 181043], for which the “B: compound efficacy (IC50) for NMNAT2 activation; increase in NMNAT2 luciferase activity” value is given as “+ (“+” <20% increase in NMNAT2 luciferase activity.)”. On the same count and under the same terms, under `Cc1ccc2onc(CNC(=O)N(C)c3ccc(C)c(C)c3)c2c1` [Compound 181056] stands “+ (“+” <20% increase in NMNAT2 luciferase activity.)”; under `Cc1ccc2onc(CNC(=O)N(C)c3ccc(F)cc3)c2c1` [Compound 181087], “+ (“+” <20% increase in NMNAT2 luciferase activity.)”. Regarding `CCCCN(C)CCNC(=O)NCc1noc2ccc(C)cc12` [Compound 181070], the “B: compound efficacy (IC50) for NMNAT2 activation; increase in NMNAT2 luciferase activity” value is listed as “+ (“+” <20% increase in NMNAT2 luciferase activity.)”. The same measure, in the same setting: under `Cc1ccc(NC(=O)NCc2noc3ccccc23)c(Br)c1` [Compound 181003] stands “+ (“+” <20% increase in NMNAT2 luciferase activity.)”.

`Cc1ccc2onc(CNC(=O)Nc3ccc(F)c(Cl)c3)c2c1` [Compound 181040]: the “B: compound efficacy (IC50) for NMNAT2 activation; increase in NMNAT2 luciferase activity” value is on record as “+ (“+” <20% increase in NMNAT2 luciferase activity.)”.

On to `Cc1ccc2onc(CNC(=O)NC3CC3)c2c1` [Compound 181063], for which the “B: compound efficacy (IC50) for NMNAT2 activation; increase in NMNAT2 luciferase activity” value is given as “+ (“+” <20% increase in NMNAT2 luciferase activity.)”. Same read-out and setting: the result for `Cc1ccc2onc(CNC(=O)NCc3ccccc3)c2c1` [Compound 181092] reads “+ (“+” <20% increase in NMNAT2 luciferase activity.)”; that for `CCc1ccc(NC(=O)NCc2noc3ccc(C)cc23)cc1` [Compound 181052], “+ (“+” <20% increase in NMNAT2 luciferase activity.)”. Same read-out and setting: the result for `Cc1ccc(CNC(=O)NCc2noc3ccc(C)cc23)cc1` [Compound 181069] reads “++ (“++” >20% and <100% increase in NMNAT2 luciferase activity.)”; that for `Cc1ccc(NC(=O)NCc2noc3ccc(C)cc23)c(Cl)c1` [Compound 181062], “+ (“+” <20% increase in NMNAT2 luciferase activity.)”; that for `Cc1ccc2onc(CNC(=O)Nc3cccc(C#N)c3)c2c1` [Compound 181066], “+ (“+” <20% increase in NMNAT2 luciferase activity.)”. Regarding `O=C(NCc1ccc(Cl)cc1)NCc1noc2ccccc12` [Compound 181029], the “B: compound efficacy (IC50) for NMNAT2 activation; increase in NMNAT2 luciferase activity” value was “++ (“++” >20% and <100% increase in NMNAT2 luciferase activity.)”. Consider `CSc1ccc(CCNC(=O)NCc2noc3ccccc23)cc1` [Compound 181033], for which the “B: compound efficacy (IC50) for NMNAT2 activation; increase in NMNAT2 luciferase activity” value is “++ (“++” >20% and <100% increase in NMNAT2 luciferase activity.)”.

The same assay, now with this note: NMNAT2-Hibit luc plasmid, 24 hours (Table C).
Take `CCn1c(=O)c(=O)n(CC(=O)NCc2ccco2)c2ccccc21` [Compound 181138]: the “C: Compound efficacy for NMNAT2 activation; increase in NMNAT2 luciferase activity” value is recorded as “+ (“+” <20% increase in NMNAT2 luciferase activity.)”. On the same count and under the same terms, the result for `CCn1cc(CCC(=O)NCc2ccco2)c2ccccc21` [Compound 181115] reads “+ (“+” <20% increase in NMNAT2 luciferase activity.)”.

On to `CC(=O)c1cn(CC(=O)NCc2ccco2)c2ccccc12` [Compound 181145], for which the “C: Compound efficacy for NMNAT2 activation; increase in NMNAT2 luciferase activity” value is on record as “+ (“+” <20% increase in NMNAT2 luciferase activity.)”.

Consider `CCC(=O)c1cn(CC(=O)NCc2ccco2)c2ccccc12` [Compound 181108], for which the “C: Compound efficacy for NMNAT2 activation; increase in NMNAT2 luciferase activity” value is “+ (“+” <20% increase in NMNAT2 luciferase activity.)”. On the same count and under the same terms, the result for `Cc1ccc(Cn2cc(CCC(=O)NCc3ccco3)c3ccccc32)cc1` [Compound 181116] reads “++ (“++” >20% and <100% increase in NMNAT2 luciferase activity.)”. Same read-out and setting: under `Cc1ccc(CNC(=O)Cn2c(C)cc(C)c(C#N)c2=O)cc1` [Compound 181121] stands “+ (“+” <20% increase in NMNAT2 luciferase activity.)”; under `O=C(CN1C(=O)c2cccc3cccc1c23)NCc1ccco1` [Compound 181104], “+ (“+” <20% increase in NMNAT2 luciferase activity.)”. Same read-out and setting: under `O=C(NCCn1ccc2cc(Br)ccc21)c1ccco1` [Compound 181158] stands “+ (“+” <20% increase in NMNAT2 luciferase activity.)”.

Take `CC(=O)c1c(C)n(CC(=O)NCc2ccco2)c2ccccc12` [Compound 181109]: the “C: Compound efficacy for NMNAT2 activation; increase in NMNAT2 luciferase activity” value is reported as “+ (“+” <20% increase in NMNAT2 luciferase activity.)”. On the same count and under the same terms, the result for `COc1ccccc1CNC(=O)Cn1c(C)cc(C)c(C#N)c1=O` [Compound 181126] reads “+ (“+” <20% increase in NMNAT2 luciferase activity.)”; that for `CC(CCc1ccco1)NC(=O)Cn1ccc2ccc(Br)cc21` (stereo not shown) [Compound 181154], “++ (“++” >20% and <100% increase in NMNAT2 luciferase activity.)”.

For `COc1cccc(CNC(=O)Cn2c(C)cc(C)c(C#N)c2=O)c1` [Compound 181125], the “C: Compound efficacy for NMNAT2 activation; increase in NMNAT2 luciferase activity” value is given as “+ (“+” <20% increase in NMNAT2 luciferase activity.)”. The same measure, in the same setting: under `Cc1ccc2c(c1)n(CC(=O)NCc1ccco1)c(=O)c1cccn12` [Compound 181113] stands “+ (“+” <20% increase in NMNAT2 luciferase activity.)”; under `COc1ccc(CNC(=O)Cn2c(C)cc(C)c(C#N)c2=O)cc1OC` [Compound 181127], “+ (“+” <20% increase in NMNAT2 luciferase activity.)”.
